Assay results published in US7067144B2, “Compositions and methods for systemic inhibition of cartilage degradation” (Omeros Corporation, priority 1998, dated 2006).

Legend:
NFκB activation = conditions: IL-1-stimulated RSF; cited from earlier work
[1] = in vivo, cited from earlier work
Type I IL-1R [2] = target: T1, Type I IL-1R (Homo sapiens, UniProt P14778); conditions: in vitro efficacy; cited from earlier work
T1 sequence (P14778 18-569): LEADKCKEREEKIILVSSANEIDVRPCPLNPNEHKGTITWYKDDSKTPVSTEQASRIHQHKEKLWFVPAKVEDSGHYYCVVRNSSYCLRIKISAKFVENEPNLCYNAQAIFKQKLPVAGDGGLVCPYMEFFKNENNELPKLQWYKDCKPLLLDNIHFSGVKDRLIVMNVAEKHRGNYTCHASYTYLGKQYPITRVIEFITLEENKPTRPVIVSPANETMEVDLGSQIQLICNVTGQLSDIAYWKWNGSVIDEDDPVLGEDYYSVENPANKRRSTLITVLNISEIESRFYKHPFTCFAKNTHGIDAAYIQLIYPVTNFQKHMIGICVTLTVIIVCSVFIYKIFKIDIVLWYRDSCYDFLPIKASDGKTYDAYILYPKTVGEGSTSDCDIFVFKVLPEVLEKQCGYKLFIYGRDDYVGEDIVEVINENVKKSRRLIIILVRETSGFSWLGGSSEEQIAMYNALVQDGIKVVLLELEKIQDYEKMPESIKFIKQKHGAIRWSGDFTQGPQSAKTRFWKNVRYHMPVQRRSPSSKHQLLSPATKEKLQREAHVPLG

[3] = test system: IL-8 production by synoviocyte cultures; test: IL-8 production by synoviocyte cultures in response to IL-1; assay type: cell-based, human
Method: (§1) 1. Cell Culture. […] Experiments were performed on cells from passages 3–8. […] The growth medium was replaced twice weekly.
The kinetics of induction of interleukin-6 in response to stimulation with IL-1 are described. Synoviocyte cultures were exposed to the indicated treatments with IL-1 plus either histamine to activate signaling through inositol trisphosphate (InsP3)/protein kinase C pathway or isproterenol to activate increases in intracellular cAMP. Production of PGE2, IL-6, and IL-8 were measured in the culture supernatants following 1, 2, 4, 6, and 24 hr treatments. In this experiment, each treatment interval was performed in a separate culture. […] IL-1 also produced a significant elevation of IL-8 (2000 pg/ml), which was first measurable at 6 hr of treatment.
The effect of ketoprofen on the induction of cytokine production by IL-1 and GPCR agonists was examined. The protocol also tested the effects of IL-1 concentration dependence on the IL-6 steady state induction. Synoviocyte cultures were exposed to indicated concentrations of IL-1 and GPCR agonists. Culture supernatants were collected and replaced with fresh media aliquots containing the same agonist additions at 8-hr intervals. PGE2, IL-6, and IL-8 in the supernatants were assayed as described.

[4] = test system: prostaglandin E2 production in synovial cultures; test: PGE2 formation in cultured human synovial fibroblasts during overnight IL-1 priming; assay type: cell-based; conditions: Fibroblast, co-incubation with IL-1 (10 U/ml), 16 hr, mean±SEM
Method: as §1
2. Experimental Treatments.
3. Measurement of Prostaglandin E2. […] Samples were stored at −80° until processing.
1. Data analysis. Immunoassays were routinely performed in duplicate aliquots from each culture. Experimental determinations were performed on duplicate or triplicate cultures. Each experiment was repeated in at least two cell lines. Nonlinear regression curve fitting and statistical analyses were performed using Graph-PAD Prism software (San Diego, Calif.).
The actions of ketoprofen, a cyclooxygenase inhibitor, to attenuate PGE2 formation were determined by co-incubation with IL-1 during prolonged exposure (16 hr); and by brief pre-incubation prior to a subsequent GPCR agonist challenge interval, as shown in FIG. 8.

[5] = test system: IL-6 production by synovial cultures; test: IL-6 production by synovial cultures stimulated with IL-1 plus GPCR ligands; assay type: cell-based, human; conditions: 0.75 μM ketoprofen
Method: FIG. 9 is a graphical representation of the effect of ketoprofen on IL-6 production by synovial cultures at 16 hours in the presence of the indicated concentrations of IL-1 plus the added G-protein coupled receptor ligands. Cultures were incubated for 16 hours with IL-1 at the indicated concentration (0.3, 1.0 and 3.0 pg/ml) in the absence and presence of 0.75 μM ketoprofen in experimental growth medium with one of the following additional receptor ligands: 1) isoproterenol (ISO) at 1.0 μM to activate the camp pathway, or 2) histamine (HIS) at 100 μM to activate the IP3/calcium pathway. Culture supernatants were collected and replaced with fresh media aliquots containing the same agonist additions at 8 hour intervals. Following treatment, the supernatant medium corresponding to the treatment interval from 8 to 16 hours was collected and analyzed for IL-6.
as §1
4. Measurement of IL-6. Production of the cytokine, IL-6, was also measured in aliquots of supernatant culture media which had been stored frozen at −80° C. IL-6 was measured by sandwich ELISA with alkaline phosphatase detection as described by the manufacturer (Pharmingen) and quantitated using standard curves prepared with the respective pure recombinant human cytokines. […]

[6] = test system: prostaglandin E2 production in synovial cultures; conditions: histamine 100 μM or bradykinin 1 μM; overnight IL-1 (10 U/ml) priming
Method: Cell Culture. Synovial tissue was obtained from osteoarthritis patients undergoing joint replacement surgery through the Clinical Research Center, MacNeal Hospital, and transported to the laboratory in Dulbecco's Modified Eagle's Medium (DMEM) containing penicillin (100 units/ml), streptomycin (100 μg/ml), and fungizone (0.25 μg/ml). The synovium was dissected and minced with scissors, and plated as explants in culture medium composed of DMEM containing L-glutamine (2 mM), heat inactivated fetal bovine serum (10% v/v), plus antibiotics. Cultures were housed at 37° C. in a humidified atmosphere of 5% CO2. Adherent synovial cells grew out of the explants within 2–3 weeks, and were passaged by trypsinization. Seed cultures were fed twice weekly and were passaged at confluency. Experiments were performed on cells from passages 3–8. Experimental cultures were plated into 35 mm dishes at a density of 7.5×10^3 cells/cm^2 in 2 ml culture medium. […]
Measurement of Prostaglandin E2. […] Aliquots of culture supernatant were analyzed by competitive binding radioimmunoassay as specified by the manufacturer (Sigma Chemical Co.), using an antibody with equivalent reactivity toward prostaglandins E2 and E1. For quantitation, a standard curve was prepared with each assay using fixed concentrations of [^3H]prostaglandin E2, and increasing concentrations of authentic competing prostaglandin E2.

Type I IL-1R [7] = target: T1, Type I IL-1R; conditions: cells that express the Type I IL-1R; cited from earlier work
PKC = conditions: read-out: IC50 PKC inhibitory activity; cited from earlier work
experimental OA = conditions: sustained systemic delivery; cited from earlier work
[8] = test system: rheumatoid synovial fibroblasts (RSF); conditions: concentrations of 10–150 μM; IL-1 or IL-8 stimulated; cited from earlier work
[9] = test system: adjuvant-induced arthritis; conditions: p.o. at 30 and 60 mg/kg/day; cited from earlier work
paw inflammation = conditions: dose of 50 mg/kg; cited from earlier work
BMP-4 receptors = conditions: 125I-BMP-4; read-out: apparent dissociation constant; cited from earlier work

O=C1CCNC(=O)c2[nH]ccc21 [aldisine]
activity on PGE2 production (NFκB activation): inactive

Ac-FEWTPGWYQJYALPL-NH2 [AF12198]
metabolism ([1]; iv): rapid metabolism | IC50 (Type I IL-1R [2]): 0.5 to 2 nM

CC(C(=O)O)c1cccc(C(=O)c2ccccc2)c1 (stereo not shown) [ketoprofen]
effect on IL-8 production in response to IL-1 [3]: reduces | IC50 [4]: 4.5 ± 0.8 nM | effect on IL-6 production in histamine or isoproterenol/IL-1 co-stimulated samples ([5]; histamine 100 μM or isoproterenol 1.0 μM plus IL-1): inhibited | inhibition at 0.75 µM ([5]; Homo sapiens, 1.0 pg/ml IL-1, 16 hr, read-out: inhibition of IL-1-elicited IL-6 production): ≤ 50%

CN(C)C[C@H]1CCn2c(c(C3=C(c4cn(C)c5ccccc45)C(=O)NC3=O)c3ccccc32)C1 [RO 32-0432]
activity on PGE2 production (NFκB activation): inactive

O=C(c1ccccc1)c1ccc2n1CCC2C(=O)O (stereo not shown) [ketorolac]
IC50 [4]: 2.2 ± 0.4 nM

NCCc1c[nH]cn1 [histamine]
fold increase in PGE2 production compared to IL-1 primed cells receiving no GPCR agonist [6]: 5–10 fold

IL-1Ra: naturally occurring secreted, soluble ligand that binds to IL-1 receptors; 22 kD protein
molar excess required to inhibit IL-1 biological responses (Type I IL-1R [7]): 10–100 fold

calphostin C
IC50 (PKC): 50000 nM

COc1ccc2c(c1)c(CC(=O)O)c(C)n2C(=O)c1ccc(Cl)cc1 [indomethacin]
IC50 [4]: 3.2 ± 1.5 nM

CC(=N)NCCCC[C@H](N)C(=O)O [L-NIL]
effect on progression of experimental OA (experimental OA): reduces the progression of experimental OA

CC(C)C[C@H](NP(=O)(O)O[C@@H]1O[C@@H](C)[C@H](O)[C@@H](O)[C@H]1O)C(=O)N[C@@H](Cc1c[nH]c2ccccc12)C(=O)O [phosphoramidon]
effect on penetration of cartilage by RSF cells [8]: substantially inhibited

C[S+]([O-])c1ccc(-c2nc(-c3ccc(F)cc3)c(-c3ccncc3)[nH]2)cc1 (stereo not shown) [SB203580, 4-(4-fluorophenyl)-2-(4-methylsulfinylphenyl)-5-(4-pyridyl)imidazole]
antiarthritic activity [9]: Antiarthritic activity | effect on paw inflammation (paw inflammation): significant inhibition of paw inflammation

Cn1c2ccccc2c2c3c(c4c5ccccc5n(CCC#N)c4c21)CNC3=O [G-6203]
IC50 (PKC): 2000 to 10000 nM

c1cnc2c(c1)ccc1cccnc12 [1,10-o-phenanthroline]
effect on penetration of cartilage by RSF cells [8]: substantially inhibited

BMP-4: bone morphogenetic protein, member of the TGF-β superfamily
Kd (BMP-4 receptors): 0.11 nM

Ac-FEWTPGWYQJY-NH2 [AF11567]
plasma half-life [1]: 2.3 to 2.6 h

CCc1cccc2c3c([nH]c12)C(CC)(CC(=O)O)OCC3 (stereo not shown) [etodolac]
IC50 [4]: 15.2 ± 4.6 nM
